# Test results published in PubChem BioAssay (NCI).
#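 Test compounds were applied to cells in 96-well plates for 48 hours at 5 doses. TGI marks complete inhibition of growth.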
# Tests used:
# Assay in all cases: NCI tumour cell line growth inhibition, 48 h
# NCI-H522 lung = tested on: NCI-H522 lung
# P388/ADR leukemia = tested on: P388/ADR leukemia
# SW-620 colon = tested on: SW-620 colon
# RPMI-8226 leukemia = tested on: RPMI-8226 leukemia
# OVCAR-5 ovarian = tested on: OVCAR-5 ovarian
# SN12K1 renal = tested on: SN12K1 renal
# SK-MEL-28 melanoma = tested on: SK-MEL-28 melanoma
# HOP-92 NSCLC = tested on: HOP-92 NSCLC
# HOP-18 NSCLC = tested on: HOP-18 NSCLC
# NCI-H226 lung = tested on: NCI-H226 lung
# SF-295 CNS = tested on: SF-295 CNS
# A498 renal = tested on: A498 renal
# EKVX NSCLC = tested on: EKVX NSCLC
# OVCAR-4 ovarian = tested on: OVCAR-4 ovarian
# SNB-19 CNS = tested on: SNB-19 CNS
# HCC-2998 colon = tested on: HCC-2998 colon
# SNB-78 CNS = tested on: SNB-78 CNS
# LOX IMVI melanoma = tested on: LOX IMVI melanoma
# SF-268 CNS = tested on: SF-268 CNS
# MOLT-4 leukemia = tested on: MOLT-4 leukemia
# OVCAR-3 ovarian = tested on: OVCAR-3 ovarian
# SK-MEL-2 melanoma = tested on: SK-MEL-2 melanoma
# HT29 colon = tested on: HT29 colon
# HCT-116 colon = tested on: HCT-116 colon
# M19-MEL melanoma = tested on: M19-MEL melanoma
# P388 leukemia = tested on: P388 leukemia
# KM12 colon = tested on: KM12 colon
# KM20L2 colon = tested on: KM20L2 colon
# A549 NSCLC = tested on: A549 NSCLC
# OVCAR-8 ovarian = tested on: OVCAR-8 ovarian
# SNB-75 CNS = tested on: SNB-75 CNS
# DMS 273 small cell lung = tested on: DMS 273 small cell lung
# UACC-257 melanoma = tested on: UACC-257 melanoma
# NCI-H23 lung = tested on: NCI-H23 lung
# HL-60(TB) leukemia = tested on: HL-60(TB) leukemia
# XF 498 CNS = tested on: XF 498 CNS
# CCRF-CEM leukemia = tested on: CCRF-CEM leukemia
# DLD-1 colon = tested on: DLD-1 colon
# COLO 205 colon = tested on: COLO 205 colon
# MALME-3M melanoma = tested on: MALME-3M melanoma
# UO-31 renal = tested on: UO-31 renal
# RXF 393 renal = tested on: RXF 393 renal
# CAKI-1 renal = tested on: CAKI-1 renal
# U251 CNS = tested on: U251 CNS
# HCT-15 colon = tested on: HCT-15 colon
# SN12C renal = tested on: SN12C renal
# NCI-H460 lung = tested on: NCI-H460 lung
# MCF7 breast = tested on: MCF7 breast
# SF-539 CNS = tested on: SF-539 CNS
# K-562 leukemia = tested on: K-562 leukemia
# UACC-62 melanoma = tested on: UACC-62 melanoma
# SK-MEL-5 melanoma = tested on: SK-MEL-5 melanoma
# IGROV1 ovarian = tested on: IGROV1 ovarian
# SK-OV-3 ovarian = tested on: SK-OV-3 ovarian
# DMS 114 small cell lung = tested on: DMS 114 small cell lung
# NCI/ADR-RES ovarian = tested on: NCI/ADR-RES ovarian
# MDA-MB-435 = tested on: MDA-MB-435
# DU-145 prostate = tested on: DU-145 prostate
# HOP-62 NSCLC = tested on: HOP-62 NSCLC
# RXF-631 renal = tested on: RXF-631 renal
# MDA-MB-231 breast = tested on: MDA-MB-231 breast
# PC-3 prostate = tested on: PC-3 prostate
# T-47D breast = tested on: T-47D breast
# LXFL 529 NSCLC = tested on: LXFL 529 NSCLC
# HS 578T breast = tested on: HS 578T breast
# BT-549 breast = tested on: BT-549 breast
# TK-10 renal = tested on: TK-10 renal
# ACHN renal = tested on: ACHN renal
# 786-0 renal = tested on: 786-0 renal
# SR leukemia = tested on: SR leukemia
# M14 melanoma = tested on: M14 melanoma
# MDA-N = tested on: MDA-N
smiles,measurement,setting,value
CC1(CO)C(O)CCC2(C)C1CCC1CC3CC12CCC3(O)CO (stereo not given),TGI,NCI-H522 lung,> 100 µM
same,TGI,P388/ADR leukemia,12.6 µM
same,TGI,SW-620 colon,> 100 µM
same,TGI,RPMI-8226 leukemia,> 100 µM
same,TGI,OVCAR-5 ovarian,> 100 µM
same,TGI,SN12K1 renal,> 100 µM
same,TGI,SK-MEL-28 melanoma,> 100 µM
same,TGI,HOP-92 NSCLC,> 100 µM
same,TGI,HOP-18 NSCLC,> 100 µM
same,TGI,NCI-H226 lung,> 89.8 µM
same,TGI,SF-295 CNS,> 100 µM
same,TGI,A498 renal,99 µM
same,TGI,EKVX NSCLC,> 100 µM
same,TGI,OVCAR-4 ovarian,> 100 µM
same,TGI,SNB-19 CNS,> 100 µM
same,TGI,HCC-2998 colon,> 100 µM
same,TGI,SNB-78 CNS,> 100 µM
same,TGI,LOX IMVI melanoma,> 100 µM
same,TGI,SF-268 CNS,> 100 µM
same,TGI,MOLT-4 leukemia,> 100 µM
same,TGI,OVCAR-3 ovarian,> 100 µM
same,TGI,SK-MEL-2 melanoma,> 100 µM
same,TGI,HT29 colon,> 100 µM
same,TGI,HCT-116 colon,> 100 µM
same,TGI,M19-MEL melanoma,> 100 µM
same,TGI,P388 leukemia,6.66 µM
same,TGI,KM12 colon,> 100 µM
same,TGI,KM20L2 colon,> 100 µM
same,TGI,A549 NSCLC,> 100 µM
same,TGI,OVCAR-8 ovarian,> 100 µM
same,TGI,SNB-75 CNS,> 100 µM
same,TGI,DMS 273 small cell lung,> 100 µM
same,TGI,UACC-257 melanoma,> 100 µM
same,TGI,NCI-H23 lung,> 100 µM
same,TGI,HL-60(TB) leukemia,> 100 µM
same,TGI,XF 498 CNS,> 100 µM
same,TGI,CCRF-CEM leukemia,> 100 µM
same,TGI,DLD-1 colon,> 100 µM
same,TGI,COLO 205 colon,> 100 µM
same,TGI,MALME-3M melanoma,> 100 µM
same,TGI,UO-31 renal,98.8 µM
same,TGI,RXF 393 renal,> 100 µM
same,TGI,CAKI-1 renal,> 100 µM
same,TGI,U251 CNS,> 100 µM
same,TGI,HCT-15 colon,> 100 µM
same,TGI,SN12C renal,> 100 µM
same,TGI,NCI-H460 lung,> 100 µM
same,TGI,MCF7 breast,> 100 µM
same,TGI,SF-539 CNS,> 44.5 µM
same,TGI,K-562 leukemia,> 100 µM
same,TGI,UACC-62 melanoma,> 100 µM
same,TGI,SK-MEL-5 melanoma,> 100 µM
same,TGI,IGROV1 ovarian,> 100 µM
same,TGI,SK-OV-3 ovarian,> 100 µM
same,TGI,DMS 114 small cell lung,> 100 µM
same,TGI,NCI/ADR-RES ovarian,> 100 µM
Cc1cc(=O)oc2c(C3=NN(C=O)C(c4ccccc4)C3)c(O)ccc12 (stereo not given),TGI,NCI-H522 lung,> 93.6 µM
same,TGI,MDA-MB-435,> 100 µM
same,TGI,SW-620 colon,> 100 µM
same,TGI,DU-145 prostate,> 100 µM
same,TGI,RPMI-8226 leukemia,> 100 µM
same,TGI,HOP-62 NSCLC,91.4 µM
same,TGI,OVCAR-5 ovarian,> 100 µM
same,TGI,SK-MEL-28 melanoma,> 100 µM
same,TGI,RXF-631 renal,> 100 µM
same,TGI,HOP-92 NSCLC,74.5 µM
same,TGI,MDA-MB-231 breast,> 100 µM
same,TGI,HOP-18 NSCLC,> 100 µM
same,TGI,NCI-H226 lung,> 100 µM
same,TGI,SF-295 CNS,> 31.1 µM
same,TGI,A498 renal,> 92.9 µM
same,TGI,EKVX NSCLC,> 100 µM
same,TGI,OVCAR-4 ovarian,> 100 µM
same,TGI,SNB-19 CNS,> 91.2 µM
same,TGI,PC-3 prostate,> 100 µM
same,TGI,T-47D breast,> 100 µM
same,TGI,HCC-2998 colon,> 100 µM
same,TGI,SNB-78 CNS,> 96 µM
same,TGI,LOX IMVI melanoma,> 100 µM
same,TGI,LXFL 529 NSCLC,> 100 µM
same,TGI,HS 578T breast,> 93.2 µM
same,TGI,SF-268 CNS,> 100 µM
same,TGI,MOLT-4 leukemia,> 100 µM
same,TGI,OVCAR-3 ovarian,> 100 µM
same,TGI,SK-MEL-2 melanoma,> 100 µM
same,TGI,BT-549 breast,> 100 µM
same,TGI,TK-10 renal,87.9 µM
same,TGI,ACHN renal,> 42.8 µM
same,TGI,HT29 colon,> 100 µM
same,TGI,786-0 renal,81.4 µM
same,TGI,HCT-116 colon,> 100 µM
same,TGI,M19-MEL melanoma,> 100 µM
same,TGI,SR leukemia,> 100 µM
same,TGI,KM12 colon,> 100 µM
same,TGI,KM20L2 colon,> 100 µM
same,TGI,A549 NSCLC,> 32.8 µM
same,TGI,OVCAR-8 ovarian,> 100 µM
same,TGI,SNB-75 CNS,17.2 µM
same,TGI,DMS 273 small cell lung,> 100 µM
same,TGI,UACC-257 melanoma,> 100 µM
same,TGI,NCI-H23 lung,> 100 µM
same,TGI,HL-60(TB) leukemia,> 100 µM
same,TGI,XF 498 CNS,42.1 µM
same,TGI,CCRF-CEM leukemia,> 100 µM
same,TGI,DLD-1 colon,> 100 µM
same,TGI,COLO 205 colon,> 81.1 µM
same,TGI,MALME-3M melanoma,> 85 µM
same,TGI,UO-31 renal,> 100 µM
same,TGI,RXF 393 renal,> 80.5 µM
same,TGI,CAKI-1 renal,> 94.9 µM
same,TGI,U251 CNS,> 100 µM
same,TGI,HCT-15 colon,> 100 µM
same,TGI,SN12C renal,> 100 µM
same,TGI,NCI-H460 lung,> 100 µM
same,TGI,MCF7 breast,> 95.5 µM
same,TGI,SF-539 CNS,> 94.4 µM
same,TGI,K-562 leukemia,> 100 µM
same,TGI,UACC-62 melanoma,> 100 µM
same,TGI,SK-MEL-5 melanoma,> 100 µM
same,TGI,IGROV1 ovarian,> 100 µM
same,TGI,SK-OV-3 ovarian,48.2 µM
same,TGI,DMS 114 small cell lung,> 100 µM
same,TGI,M14 melanoma,> 95.9 µM
same,TGI,MDA-N,> 100 µM
same,TGI,NCI/ADR-RES ovarian,> 100 µM
